Source: the supplement of paper PMC10307832

Experiments:
Assay in all cases: relative viability (nuclei count vs DMSO), 5 days (fraction); higher = more cells survive
[1] = compound: O=C(CCCCCCC(=O)Nc1ccccc1)NO [Vorinostat]
Procedure, shortened: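 Viability here means nuclei in treated wells divided by nuclei in vehicle wells, reported as the median across plates. Only plates with control CV below 25% and at least one doubling passed. Lung cancer cell lines in 1536-well plates were exposed to five √10-spaced library-drug doses for 5 days and counted from 4× Hoechst images in MetaXpress.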

[2] = compound: O=C(CCCCCCC(=O)Nc1ccccc1)NO [Vorinostat] + CC(C)C[C@H](NC(=O)[C@H](Cc1ccccc1)NC(=O)c1cnccn1)B(O)O [Bortezomib] (partner 0.002 µM)
Procedure, shortened: (§1)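 A single step with final 0.05% Triton X-100, 1% formaldehyde and 1 ug/ml Hoechst fixed the cells and stained nuclei 5 days after treatment. Lung cancer cell lines in 1536-well plates had been treated by pin tool the day after seeding with one drug alone or a fixed anchor-drug dose plus five library-drug doses (not always all listed) in √10 steps, and nuclei were counted on 4× images. Relative viability is the ratio of nuclei in treated wells to nuclei in vehicle wells, taken as the median of duplicate plates.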

[3] = compound: O=C(CCCCCCC(=O)Nc1ccccc1)NO [Vorinostat] + CC1(C)CCC(c2ccc(Cl)cc2)=C(CN2CCN(c3ccc(C(=O)NS(=O)(=O)c4ccc(N[C@H](CCN5CCOCC5)CSc5ccccc5)c(S(=O)(=O)C(F)(F)F)c4)cc3)CC2)C1 [Navitoclax] (partner 0.5 µM)
Procedure, shortened: as §1

[4] = compound: O=C(CCCCCCC(=O)Nc1ccccc1)NO [Vorinostat] + COc1cc2c(Oc3ccc(NC(=O)C4(C(=O)Nc5ccc(F)cc5)CC4)cc3F)ccnc2cc1OCCCN1CCOCC1 [Foretinib] (partner 0.25 µM)
Procedure, shortened: as §1

[5] = compound: O=C(CCCCCCC(=O)Nc1ccccc1)NO [Vorinostat] + CS(=O)(=O)CCNCc1ccc(-c2ccc3ncnc(Nc4ccc(OCc5cccc(F)c5)c(Cl)c4)c3c2)o1 [Lapatinib] (partner 2 µM)
Procedure, shortened: as §1

[6] = compound: O=C(CCCCCCC(=O)Nc1ccccc1)NO [Vorinostat] + CS(=O)(=O)N1CCN(Cc2cc3nc(-c4cccc5[nH]ncc45)nc(N4CCOCC4)c3s2)CC1 [Pictilisib] (partner 1 µM)
Procedure, shortened: as §1

[7] = compound: O=C(CCCCCCC(=O)Nc1ccccc1)NO [Vorinostat] + C[C@@H](Oc1cc(-c2cnn(C3CCNCC3)c2)cnc1N)c1c(Cl)ccc(F)c1Cl [Crizotinib] (partner 1 µM)
Procedure, shortened: as §1

[8] = compound: O=C(CCCCCCC(=O)Nc1ccccc1)NO [Vorinostat] + C[C@]1(O)C[C@@H](c2nc(-c3ccc4ccc(-c5ccccc5)nc4c3)c3c(N)nccn32)C1 [Linsitinib] (partner 1 µM)
Procedure, shortened: as §1

[9] = compound: O=C(CCCCCCC(=O)Nc1ccccc1)NO [Vorinostat] + Cc1nc(NC(=O)N2CCC[C@H]2C(N)=O)sc1-c1ccnc(C(C)(C)C(F)(F)F)c1 [Alpelisib] (partner 2 µM)
Procedure, shortened: as §1

[10] = compound: O=C(CCCCCCC(=O)Nc1ccccc1)NO [Vorinostat] + O=C(c1cc(Cc2n[nH]c(=O)c3ccccc23)ccc1F)N1CCN(C(=O)C2CC2)CC1 [Olaparib] (partner 8 µM)
Procedure, shortened: as §1

Cell Line: NCI-H1299
- relative viability ([1]; 0.253 µM): 1.06
- relative viability ([1]; 0.8 µM): 0.979
- relative viability ([1]; 2.53 µM): 0.786
- relative viability ([1]; 8 µM): 0.36
- relative viability ([2]; first compound 0.253 µM): 1.07
- relative viability ([2]; first compound 0.8 µM): 1.03
- relative viability ([2]; first compound 2.53 µM): 0.826
- relative viability ([2]; first compound 8 µM): 0.343
- relative viability ([3]; first compound 0.253 µM): 1.07
- relative viability ([3]; first compound 0.8 µM): 1
- relative viability ([3]; first compound 2.53 µM): 0.767
- relative viability ([3]; first compound 8 µM): 0.444
- relative viability ([4]; first compound 0.253 µM): 1.05
- relative viability ([4]; first compound 0.8 µM): 1.06
- relative viability ([4]; first compound 2.53 µM): 0.717
- relative viability ([4]; first compound 8 µM): 0.277
- relative viability ([5]; first compound 0.253 µM): 0.979
- relative viability ([5]; first compound 0.8 µM): 0.87
- relative viability ([5]; first compound 2.53 µM): 0.736
- relative viability ([5]; first compound 8 µM): 0.466
- relative viability ([6]; first compound 0.253 µM): 1.1
- relative viability ([6]; first compound 0.8 µM): 0.677
- relative viability ([6]; first compound 2.53 µM): 0.221
- relative viability ([6]; first compound 8 µM): 0.075
- relative viability ([7]; first compound 0.253 µM): 0.992
- relative viability ([7]; first compound 0.8 µM): 0.812
- relative viability ([7]; first compound 2.53 µM): 0.554
- relative viability ([7]; first compound 8 µM): 0.291
- relative viability ([8]; first compound 0.253 µM): 1.15
- relative viability ([8]; first compound 0.8 µM): 0.923
- relative viability ([8]; first compound 2.53 µM): 0.51
- relative viability ([8]; first compound 8 µM): 0.265
- relative viability ([9]; first compound 0.253 µM): 1.15
- relative viability ([9]; first compound 0.8 µM): 1.05
- relative viability ([9]; first compound 2.53 µM): 0.789
- relative viability ([9]; first compound 8 µM): 0.454
- relative viability ([10]; first compound 0.253 µM): 1
- relative viability ([10]; first compound 0.8 µM): 0.909
- relative viability ([10]; first compound 2.53 µM): 0.642
- relative viability ([10]; first compound 8 µM): 0.329
